Laboratory results as given in patent publication US8257949B2, “Self-priming polysialyltransferase” (National Research Council of Canada, priority 2006, dated 2012).

Columns and labels:
Format in all cases: biochemical
[1] = molecular target: T1, N. meningitidis polysialyltransferase PST-13 (MalE-PST fusion) (Neisseria meningitidis, UniProt Q51281); assay: Sialyltransferase activity by capillary electrophoresis, apparent Km estimation; conditions: CE based assay, 37° C., 50 mM NaHEPES pH 7.5, 10 mM MgCl2, estimated, read-out: apparent Km for GD3-FCHASE
Protocol: (§1) For production of PST proteins, Cells grown in the presence of IPTG were lysed with an Avestin C5 Emulsiflex cell disrupter (Avestin Ottawa, Ontario) and centrifuged at 1000×g to pellet unbroken cells. MalE-PST fusions were purified using amylose resin as described by the manufacturer (New England Biolabs, Mississauga ON).
(§2) Measurement of sialyltransferase activity—Basic assays were performed at 37° C. in 10-40 μL volumes containing 50 mM NaHEPES pH 7.5, 10 mM MgCl2, 0.1-50 mM CMP-NeuAc, 0.01-5 mM labelled acceptor and various amounts of enzyme. Buffer optimization assays were done with the following buffers: 20 mM citrate-phosphate pH 6.0-8.0, 50 mM Na2PO4 pH 6.5-7.5, 50 mM NaHEPES pH 6.5-8.0, 50 mM TrisHCl pH 7.5-9.0. Metal optimization assays were performed with 10 mM CaCl2, CoCl2, MgCl2, MnCl2, NiCl2, or ZnSO4. For the magnesium titration, endogenous Mg^2+ was removed by addition of EDTA and then dialyzed against 20 mM TrisHCl pH 7.5. Reactions were stopped man equal volume of 50% acetonitrile, 1% sodium dodecylsulphate, 10 mM EDTA. Analysis of actions was done by capillary electrophoresis as previously described. See, e.g., Wakarchuk, W. W. and Cunningham, A. M., Methods Mol. Biol., 213:263-274 (2003)).
(§3) Acceptor synthesis—The GM3/GD3/GT3-FCHASE acceptors were synthesized from Lac-FCHASE on a milligram scale. […]

[2] = molecular target: E. coli polysialyltransferase PST-05 (MalE-PST fusion) (Escherichia coli, UniProt Q57269); assay: as above; conditions: CE based assay, 37° C., 50 mM NaHEPES pH 7.5, 10 mM MgCl2, estimated, read-out: apparent Km for GD3-FCHASE
Protocol: as §1, §2, §3

[3] = molecular target: T1, N. meningitidis polysialyltransferase PST-13 (MalE-PST fusion); assay: Acceptor inhibition in kinetic assays; conditions: GD3-FCHASE at concentrations over 2 mM
Protocol: as §2
Some degradation of the starting material was observed and was more significant at high acceptor concentrations (5 mM).

NeuAc-α2,8-NeuAc-α2,3-Gal-β1,4-Glc-β-FCHASE [GD3-FCHASE]
Km [1]: 120 µM
Km [2]: 145 µM
acceptor inhibition (productivity of the enzyme) [3]: decreased significantly
